Source: ChEMBL document CHEMBL5365510, “Discovery of Novel, Thienopyridine-Based Tyrosine Kinase Inhibitors Targeting Tumorigenic RON Splice Variants” (ACS Med Chem Lett, 2023)
Active and inactive are the calls of the source. No cut-off for these calls is given here.

Tests used:
KM12C [1] = assay: Antiproliferative activity against human KM12-C cells harbouring wild-type KRAS and RON delta 160 assessed as cell growth inhibition measured after 72 hrs by MTS assay; format: functional
SW-620 [2] = assay: Antiproliferative activity against human SW620 cells harbouring KRAS G12 V mutant and RON delta 155 assessed as cell growth inhibition measured after 72 hrs by MTS assay; format: functional
KM12C [3] = assay: Antiproliferative activity against human KM12-C cells harbouring wild-type KRAS and RON delta 160 assessed as cell death rate at 5 uM measured after 48 hrs by trypan blue exclusion assay relative to control; format: functional
HT-29 [4] = assay: Antiproliferative activity against human HT-29 cells harbouring wild-type KRAS and RON delta 160 assessed as cell death rate at 5 uM measured after 48 hrs by trypan blue exclusion assay relative to control; format: functional
NIH3T3 [5] = assay: Inhibition of RON splicing variant 155 (unknown origin) transfected in […] cells assessed as reduction in RON phosphorylation at 100 uM incubated for 2 hrs by Western blotting analysis; format: cell-based
NIH3T3 [6] = assay: Inhibition of RON splicing variant 160 (unknown origin) transfected in […] cells assessed as reduction in RON phosphorylation at 100 uM incubated for 2 hrs by Western blotting analysis; format: cell-based
NIH3T3 [7] = assay: Inhibition of RON splicing variant 165 (unknown origin) transfected in […] cells assessed as reduction in RON phosphorylation at 100 uM incubated for 2 hrs by Western blotting analysis; format: cell-based
LS-411N = assay: Antiproliferative activity against human LS-411N cells harbouring wild-type KRAS and RON delta 155 assessed as cell growth inhibition measured after 72 hrs by MTS assay; format: functional
[8] = Antiproliferative activity against human SNU-1047 cells harbouring wild-type KRAS and RON delta 155 assessed as cell growth inhibition measured after 72 hrs by MTS assay; format: functional
SW1417 = assay: Antiproliferative activity against human SW1417 cells harbouring wild-type KRAS and RON delta 155 assessed as cell growth inhibition measured after 72 hrs by MTS assay; format: functional
PANC-1 = assay: Antiproliferative activity against human PANC-1 cells harbouring KRAS G12D mutant and RON delta 155 assessed as cell growth inhibition measured after 72 hrs by MTS assay; format: functional
CAPAN-1 = assay: Antiproliferative activity against human CAPAN-1 cells harbouring KRAS G12V mutant and RON delta 155 assessed as cell growth inhibition measured after 72 hrs by MTS assay; format: functional
PANC-03-27 = assay: Antiproliferative activity against human Panc 03.27 cells harbouring KRAS G12V mutant and RON delta 155 assessed as cell growth inhibition measured after 72 hrs by MTS assay; format: functional
SW480 = assay: Antiproliferative activity against human SW480 cells harbouring KRAS G12V mutant and RON delta 155 assessed as cell growth inhibition measured after 72 hrs by MTS assay; format: functional
[9] = Antiproliferative activity against human SW480E cells harbouring KRAS G12V mutant and RON delta 160 assessed as cell growth inhibition measured after 72 hrs by MTS assay; format: functional
HCT-15 = assay: Antiproliferative activity against human HCT-15 cells harbouring KRAS G13D mutant and RON delta 160 assessed as cell growth inhibition measured after 72 hrs by MTS assay; format: functional
MIA PaCa-2 = assay: Antiproliferative activity against human MIA PaCa-2 cells harbouring KRAS G12C mutant and RON delta 160 assessed as cell growth inhibition measured after 72 hrs by MTS assay; format: functional
ASPC1 = assay: Antiproliferative activity against human ASPC1 cells harbouring KRAS G12D mutant and RON delta 165 assessed as cell growth inhibition measured after 72 hrs by MTS assay; format: functional
[10] = Tmax in Sprague-Dawley rat at 5 mg/kg, po measured after 24 hrs by LC/MS/MS analysis; format: ADME, organism-based; details: in vivo
[11] = Cmax in Sprague-Dawley rat at 5 mg/kg, po measured after 24 hrs by LC/MS/MS analysis; format: ADME, organism-based; parameters: dose 5 mg/kg, time 24 hrs, route po; details: in vivo
[12] = AUC(0 to infinity) in Sprague-Dawley rat at 1 mg/kg, iv measured after 24 hrs by LC/MS/MS analysis; format: ADME, organism-based; parameters: time 24 hrs, dose 1 mg/kg, route iv; details: in vivo
[13] = AUC(0 to infinity) in Sprague-Dawley rat at 5 mg/kg, po measured after 24 hrs by LC/MS/MS analysis; format: ADME, organism-based; parameters: dose 5 mg/kg, time 24 hrs, route po; details: in vivo
[14] = Clearance in Sprague-Dawley rat at 1 mg/kg, iv measured after 24 hrs by LC/MS/MS analysis; format: ADME, organism-based; details: in vivo
[15] = Volume of distribution at steady state in Sprague-Dawley rat at 1 mg/kg, iv measured after 24 hrs by LC/MS/MS analysis; format: ADME, organism-based; details: in vivo, read-out: Vdss
[16] = Half life in Sprague-Dawley rat at 1 mg/kg, iv measured after 24 hrs by LC/MS/MS analysis; format: ADME, organism-based; details: in vivo
[17] = Half life in Sprague-Dawley rat at 5 mg/kg, po measured after 24 hrs by LC/MS/MS analysis; format: ADME, organism-based; details: in vivo
[18] = Oral bioavailability in Sprague-Dawley rat at 5 mg/kg measured after 24 hrs by LC/MS/MS analysis; format: ADME, organism-based; details: in vivo
[19] = Metabolic stability in human liver microsomes assessed as parent compound remaining after 30 mins in presence of NADPH by LC/MS/MS analysis; format: ADME, Microsome; details: read-out: Stability
KM12C [20] = assay: Antitumor activity against human KM12-C cells harbouring RON delta 160 xenografted in BALB/c mouse assessed as tumor growth inhibition at 1 mg/kg, po qd measured after 14 days; format: functional; details: 336 h, time 14 day, read-out: TGI
KM12C [21] = assay: Antitumor activity against human KM12-C cells harbouring RON delta 160 xenografted in BALB/c mouse assessed as tumor growth inhibition at 3 mg/kg, po qd measured after 14 days; format: functional; details: 336 h, time 14 day, read-out: TGI
KM12C [22] = assay: Antitumor activity against human KM12-C cells harbouring RON delta 160 xenografted in BALB/c mouse assessed as tumor growth inhibition at 10 mg/kg, po qd measured after 14 days; format: functional; details: 336 h, time 14 day, read-out: TGI
KM12C [23] = assay: Antitumor activity against human KM12-C cells harbouring RON delta 160 xenografted in BALB/c mouse assessed as tumor growth inhibition at 30 mg/kg, po qd measured after 14 days; format: functional; details: 336 h, time 14 day, read-out: TGI
SW-620 [24] = assay: Antitumor activity against human SW620 cells harbouring RON delta 155 xenografted in BALB/c mouse assessed as tumor growth inhibition at 30 mg/kg, po qd measured after 28 days; format: functional; details: SW-620, 672 h, time 28 day, read-out: TGI
T84 = assay: Antitumor activity against human T84 cells harbouring RON delta 165 xenografted in BALB/c mouse assessed as tumor growth inhibition at 30 mg/kg, po qd measured after 34 days; format: functional; details: T84, 816 h, time 34 day, read-out: TGI
[25] = Antitumor activity against patient derived Colorectal cancer cell harbouring wild-type KRAS and RON delta 160 xenografted in BALB/c mouse assessed as tumor growth inhibition at 10 mg/kg, po qd measured after 28 days; format: functional; details: Homo sapiens, 672 h, time 28 day, read-out: TGI
[26] = target: Hepatocyte growth factor receptor (Homo sapiens, UniProt P08581); assay: Inhibition of c-Met (unknown origin)
Sequence of Hepatocyte growth factor receptor (P08581 whole entry): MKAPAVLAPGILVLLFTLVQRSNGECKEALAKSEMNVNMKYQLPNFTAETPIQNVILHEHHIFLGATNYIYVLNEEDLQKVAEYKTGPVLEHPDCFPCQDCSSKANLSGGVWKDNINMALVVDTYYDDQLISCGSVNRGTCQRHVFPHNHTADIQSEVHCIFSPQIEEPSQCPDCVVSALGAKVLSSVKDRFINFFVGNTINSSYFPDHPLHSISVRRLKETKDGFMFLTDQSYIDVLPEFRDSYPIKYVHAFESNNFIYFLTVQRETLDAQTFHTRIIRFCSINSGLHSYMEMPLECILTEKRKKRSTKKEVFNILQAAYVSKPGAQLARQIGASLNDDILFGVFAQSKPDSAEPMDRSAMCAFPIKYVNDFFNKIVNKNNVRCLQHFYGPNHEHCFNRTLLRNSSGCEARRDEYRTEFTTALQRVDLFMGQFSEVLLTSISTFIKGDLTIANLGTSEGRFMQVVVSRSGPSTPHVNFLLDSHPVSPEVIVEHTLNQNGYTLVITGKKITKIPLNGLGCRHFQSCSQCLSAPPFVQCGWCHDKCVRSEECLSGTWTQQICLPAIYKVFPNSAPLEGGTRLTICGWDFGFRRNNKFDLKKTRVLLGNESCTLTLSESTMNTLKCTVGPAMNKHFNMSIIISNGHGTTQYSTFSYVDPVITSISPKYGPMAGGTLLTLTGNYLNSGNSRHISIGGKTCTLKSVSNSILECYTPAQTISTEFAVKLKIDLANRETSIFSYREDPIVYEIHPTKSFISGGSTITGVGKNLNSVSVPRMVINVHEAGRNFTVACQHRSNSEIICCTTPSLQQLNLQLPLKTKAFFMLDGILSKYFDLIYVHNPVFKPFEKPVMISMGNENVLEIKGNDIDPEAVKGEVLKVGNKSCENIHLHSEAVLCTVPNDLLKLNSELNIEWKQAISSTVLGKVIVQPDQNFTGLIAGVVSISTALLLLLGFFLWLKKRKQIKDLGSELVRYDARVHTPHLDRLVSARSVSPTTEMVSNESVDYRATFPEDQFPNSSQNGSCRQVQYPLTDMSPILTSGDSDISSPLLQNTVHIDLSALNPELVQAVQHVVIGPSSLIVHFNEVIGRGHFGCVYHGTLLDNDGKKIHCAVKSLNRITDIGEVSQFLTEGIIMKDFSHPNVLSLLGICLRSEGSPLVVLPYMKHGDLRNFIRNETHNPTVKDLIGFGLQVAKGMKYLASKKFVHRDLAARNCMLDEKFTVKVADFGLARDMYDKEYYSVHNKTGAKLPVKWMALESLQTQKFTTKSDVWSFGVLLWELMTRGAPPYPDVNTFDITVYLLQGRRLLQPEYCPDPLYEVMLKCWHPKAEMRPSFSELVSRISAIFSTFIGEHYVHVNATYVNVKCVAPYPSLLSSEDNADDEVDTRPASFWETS

HT-29 [27] = assay: Antiproliferative activity against human HT-29 cells harbouring wild-type KRAS and RON delta 160 assessed as cell growth inhibition measured after 72 hrs by MTS assay; format: functional
[28] = target: T1, Macrophage-stimulating protein receptor (Homo sapiens, UniProt Q04912); assay: Inhibition of RON (unknown origin)
[29] = target: T1, Macrophage-stimulating protein receptor; assay: Inhibition of N-terminal GST-tagged human recombinant RON (979 to 1400(end) residues) expressed in Sf21 cells incubated for 20 mins followed by ATP addition measured after 60 mins by TR-FRET based LanthaScreen kinase assay

| GI50 (SW-620 [2]) | GI50 (PANC-1) | GI50 (PANC-03-27) | GI50 (SW480) | GI50 (MIA PaCa-2) | GI50 (ASPC1) | GI50 (HT-29 [27]) | SMILES | GI50 (KM12C [1]) | GI50 (LS-411N) | GI50 [8] | GI50 (SW1417) | GI50 (CAPAN-1) | GI50 [9] | GI50 (HCT-15) | Tmax [10] | Cmax [11] | Vd [15] | half-life [16] | half-life [17] | inhibition in vivo at 10 mg/kg [25] | further results |
| --- | --- | --- | --- | --- | --- | --- | --- | --- | --- | --- | --- | --- | --- | --- | --- | --- | --- | --- | --- | --- | --- |
| 860 nM | > 10000 nM | > 10000 nM | > 10000 nM | > 10000 nM | > 10000 nM | > 10000 nM | CCOc1ccn(-c2ccc(F)cc2)c(=O)c1C(=O)Nc1ccc(Oc2ccnc(N)c2Cl)c(F)c1 [BMS-777607] | 133 nM | > 10000 nM | > 10000 nM | > 10000 nM | 9020 nM | > 10000 nM | 5000 nM |  |  |  |  |  | 1.5% | inhibition in vivo at 30 mg/kg (SW-620 [24]): 41.6%; inhibition in vivo at 30 mg/kg (T84): 46.9% |
|  | 2560 nM | 6350 nM | > 10000 nM | 1460 nM | 2380 nM | 4000 nM | C[C@@H](Oc1cc(-c2cnn(C3CCNCC3)c2)cnc1N)c1c(Cl)ccc(F)c1Cl [CRIZOTINIB] |  |  |  |  | 5120 nM |  |  |  |  |  |  |  | 27.5% |  |

Continued, compound first:

| SMILES | GI50 (SW-620 [2]) | GI50 (PANC-1) | GI50 (PANC-03-27) | GI50 (SW480) | GI50 (MIA PaCa-2) | GI50 (ASPC1) | GI50 (HT-29 [27]) | GI50 (KM12C [1]) | GI50 (LS-411N) | GI50 [8] | GI50 (SW1417) | GI50 (CAPAN-1) | GI50 [9] | GI50 (HCT-15) | Tmax [10] | Cmax [11] | Vd [15] | half-life [16] | half-life [17] | inhibition in vivo at 10 mg/kg [25] | further results |
| --- | --- | --- | --- | --- | --- | --- | --- | --- | --- | --- | --- | --- | --- | --- | --- | --- | --- | --- | --- | --- | --- |
| CCOc1ccn(-c2ccc(F)cc2)c(=O)c1C(=O)Nc1ccc(Oc2ccnc3cc(-c4ccc(CN5CCOCC5)cn4)sc23)c(F)c1 | 320 nM | 2400 nM | 7340 nM | 340 nM | 630 nM | 460 nM |  | 7 nM | 1010 nM | 550 nM | 320 nM | 550 nM | 450 nM | 290 nM | 1 h | 2020 ng/mL | 2.25 L/kg | 3.28 h | 3.1 h | 74.9% | Activity (KM12C [3]): 41.9%; Activity (HT-29 [4]): 51.3%; inhibition (NIH3T3 [5]): Active; inhibition (NIH3T3 [6]): Active; inhibition (NIH3T3 [7]): Active; AUC ([12]; 24 h): 7240 ng·h/mL; AUC ([13]; 24 h): 12600 ng·h/mL; CL ([14]; iv, 1 mg/kg, 24 h): 11.5 mL/min/kg; F ([18]; po, 5 mg/kg, 24 h): 87.01%; remaining at 0.5 h [19]: 69%; inhibition in vivo at 1 mg/kg (KM12C [20]): 29.4%; inhibition in vivo at 3 mg/kg (KM12C [21]): 35%; inhibition in vivo at 10 mg/kg (KM12C [22]): 73%; inhibition in vivo at 30 mg/kg (KM12C [23]): 85.2%; inhibition in vivo at 30 mg/kg (SW-620 [24]): 79.8%; inhibition in vivo at 30 mg/kg (T84): 88.3% |
| COc1ccc2c(Oc3ccc(NC(=O)c4c(C)n(CC(C)(C)O)n(-c5ccccc5)c4=O)cc3F)ccnc2c1 |  |  |  |  |  |  |  |  |  |  |  |  |  |  |  |  |  |  |  |  | IC50 [26]: 9 nM |
| CCOc1ccn(-c2ccc(F)cc2)c(=O)c1C(=O)Nc1ccc(Oc2ccnc3cc(-c4cn(C)cn4)sc23)c(F)c1 | 810 nM |  |  |  |  |  | 570 nM | 27 nM |  |  |  |  |  |  | 2.67 h | 810 ng/mL | 0.64 L/kg | 3.03 h | 3.79 h |  | IC50 [28]: 9 nM; IC50 [26]: 4 nM; IC50 [29]: 0.41 nM; AUC(0-inf) ([12]; Sprague-Dawley): 4370 ng·h/mL; AUC(0-inf) ([13]; Sprague-Dawley): 6670 ng·h/mL; clearance ([14]; Sprague-Dawley): 3.83 mL/min/kg; bioavailability ([18]; Sprague-Dawley): 30.5%; remaining at 0.5 h [19]: 49% |
| Cc1ccc(C(=O)Nc2ccc(Oc3cc4cnn(C)c4cc3-c3cn[nH]c3)c(F)c2)c(=O)n1-c1ccc(F)cc1 [MERESTINIB] |  |  |  |  |  |  |  |  |  |  |  |  |  |  |  |  |  |  |  |  | IC50 [28]: 12 nM |
